Results taken from patent publication US20230093099A1, “COMPOUNDS AND METHODS OF TREATING CANCERS” (CULLGEN (SHANGHAI), INC., priority 2019, published 2023).

test system: RS4;11 cells; experiment: Cell viability assay (CellTiter-Glo) in RS4;11 cells; type: cell-based; conditions: Homo sapiens, 72 h; RS4;11 cells; cell viability, 3 days, CellTiter-Glo; read-out: IC50
Outline: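 RS4;11 cells seeded at 5000 per well, exposed for 3 days to 8- or 12-point 3-fold serial dilutions. Viability read by CellTiter-Glo luminescence; IC50 fitted by nonlinear least-squares regression.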

SMILES | IC50 [µM]
O=C(CN1CCC(n2cc(-c3cnc4cccc(-c5cc(F)c(CN6CCOCC6)c(F)c5)c4n3)cn2)CC1)NCCCCNc1ccc2c(c1)C(=O)N(C1CCC(=O)NC1=O)C2=O (stereo not shown) [JA-176, 2-(4-(4-(8-(3,5-Difluoro-4-(morpholinomethyl)phenyl)quinoxalin-2-yl)-1H-pyrazol-1-yl)piperidin-1-yl)-N-(4-((2-(2,6-dioxopiperidin-3-yl)-1,3-dioxoisoindolin-5-yl)amino)butyl)acetamide] | 2.79
O=C(CN1CCC(n2cc(-c3cnc4cccc(-c5cc(F)c(CN6CCOCC6)c(F)c5)c4n3)cn2)CC1)NCCCNc1cccc2c1C(=O)N(C1CCC(=O)NC1=O)C2=O (stereo not shown) [JA-154, 2-(4-(4-(8-(3,5-Difluoro-4-(morpholinomethyl)phenyl)quinoxalin-2-yl)-1H-pyrazol-1-yl)piperidin-1-yl)-N-(3-((2-(2,6-dioxopiperidin-3-yl)-1,3-dioxoisoindolin-4-yl)amino)propyl)acetamide] | 1.41
O=C(CN1CCC(n2cc(-c3cnc4cccc(-c5cc(F)c(CN6CCOCC6)c(F)c5)c4n3)cn2)CC1)NCCOCCNc1cccc2c1C(=O)N(C1CCC(=O)NC1=O)C2=O (stereo not shown) [JA-139, 2-[4-[4-[8-[3,5-Difluoro-4-(morpholinomethyl)phenyl]quinoxalin-2-yl]pyrazol-1-yl]-1-piperidyl]-N-[2-[2-[[2-(2,6-dioxo-3-piperidyl)-1,3-dioxo-isoindolin-4-yl]amino]ethoxy]ethyl]acetamide] | > 10
CS(=O)(=O)c1ccc(-c2cccc3nc(Nc4ccc(N5CCN(C(=O)CCCCCCc6ccc7c(c6)C(=O)N(C6CCC(=O)NC6=O)C7=O)CC5)cc4)nn23)cc1 (stereo not shown) [JA-249, 2-(2,6-Dioxopiperidin-3-yl)-5-(7-(4-(4-((5-(4-(methylsulfonyl)phenyl)-[1,2,4]triazolo[1,5-a]pyridin-2-yl)amino)phenyl)piperazin-1-yl)-7-oxoheptyl)isoindoline-1,3-dione] | 0.104
CS(=O)(=O)c1ccc(-c2cccc3nc(Nc4ccc(N5CCN(C(=O)CCCCCCCNc6cccc7c6C(=O)N(C6CCC(=O)NC6=O)C7=O)CC5)cc4)nn23)cc1 (stereo not shown) [JA-084, 2-(2,6-Dioxo-piperidin-3-yl)-4-[8-(4-{4-[5-(4-methanesulfonyl-phenyl)-[1,2,4]triazolo[1,5-a]pyridin-2-ylamino]-phenyl}-piperazin-1-yl)-8-oxo-octylamino]-isoindole-1,3-dione] | > 10
Cc1ncsc1-c1ccc(CNC(=O)[C@@H]2C[C@@H](O)CN2C(=O)[C@@H](NC(=O)CCCCCCNC(=O)CN2CCC(n3cc(-c4cnc5cccc(-c6cc(F)c(CN7CCOCC7)c(F)c6)c5n4)cn3)CC2)C(C)(C)C)cc1 [JA-165, (2S,4R)-1-((S)-2-(7-(2-(4-(4-(8-(3,5-Difluoro-4-(morpholinomethyl)phenyl)quinoxalin-2-yl)-1H-pyrazol-1-yl)piperidin-1-yl)acetamido)heptanamido)-3,3-dimethylbutanoyl)-4-hydroxy-N-(4-(4-methylthiazol-5-yl)benzyl)pyrrolidine-2-carboxamide] | > 10
O=C1CCC(N2C(=O)c3cccc(NCC(=O)N4CCC(n5cc(-c6cnc7cccc(-c8cc(F)c(CN9CCOCC9)c(F)c8)c7n6)cn5)CC4)c3C2=O)C(=O)N1 (stereo not shown) [JA-002, 4-[[2-[4-[4-[8-[3,5-Difluoro-4-(morpholinomethyl)phenyl]quinoxalin-2-yl]pyrazol-1-yl]-1-piperidyl]-2-oxo-ethyl]amino]-2-(2,6-dioxo-3-piperidyl)isoindoline-1,3-dione] | 5.44
Cn1c(=O)n(C2CCC(=O)NC2=O)c2ccc(NCCCCCCC(=O)N3CCN(c4ccc(Nc5nc6cccc(-c7ccc(S(C)(=O)=O)cc7)n6n5)cc4)CC3)cc21 (stereo not shown) [JA-293, 3-(3-Methyl-5-((7-(4-(4-((5-(4-(methylsulfonyl)phenyl)-[1,2,4]triazolo[1,5-a]pyridin-2-yl)amino)phenyl)piperazin-1-yl)-7-oxoheptyl)amino)-2-oxo-2,3-dihydro-1H-benzo[d]imidazol-1-yl)piperidine-2,6-dione] | > 0.5
Cc1cnc(Nc2ccc(N3CCN(C(=O)CCCCCCNc4cccc5c4C(=O)N(C4CCC(=O)NC4=O)C5=O)CC3)cc2)nc1Nc1cccc(S(=O)(=O)NC(C)(C)C)c1 (stereo not shown) [JA-015, N-(tert-Butyl)-3-((2-((4-(4-(7-((2-(2,6-dioxopiperidin-3-yl)-1,3-dioxoisoindolin-4-yl)amino)heptanoyl)piperazin-1-yl)phenyl)amino)-5-methylpyrimidin-4-yl)amino)benzenesulfonamide] | > 10
Cc1cnc(Nc2ccc(N3CCN(C(=O)CCCCCCCNc4cccc5c4C(=O)N(C4CCC(=O)NC4=O)C5=O)CC3)cc2)nc1Nc1cccc(S(=O)(=O)NC(C)(C)C)c1 (stereo not shown) [JA-016, N-(tert-Butyl)-3-((2-((4-(4-(8-((2-(2,6-dioxopiperidin-3-yl)-1,3-dioxoisoindolin-4-yl)amino)octanoyl)piperazin-1-yl)phenyl)amino)-5-methylpyrimidin-4-yl)amino)benzenesulfonamide] | > 10
Cc1cnc(Nc2ccc(N3CCN(C(=O)CCOCCOCCOCCC(=O)N[C@H](C(=O)N4C[C@H](O)C[C@H]4C(=O)NCc4ccc(-c5scnc5C)cc4)C(C)(C)C)CC3)cc2)nc1Nc1cccc(S(=O)(=O)NC(C)(C)C)c1 [JA-034, (2S,4R)-1-((S)-2-(tert-Butyl)-16-(4-(4-((4-((3-(N-(tert-butyl)sulfamoyl)phenyl)amino)-5-methylpyrimidin-2-yl)amino)phenyl)piperazin-1-yl)-4,16-dioxo-7,10,13-trioxa-3-azahexadecanoyl)-4-hydroxy-N-(4-(4-methylthiazol-5-yl)benzyl)pyrrolidine-2-carboxamide] | > 10
CS(=O)(=O)c1ccc(-c2cccc3nc(Nc4ccc(N5CCN(C(=O)CCCNc6ccc7c(c6)C(=O)N(C6CCC(=O)NC6=O)C7=O)CC5)cc4)nn23)cc1 (stereo not shown) [JA-216, 2-(2,6-Dioxopiperidin-3-yl)-5-((4-(4-(4-((5-(4-(methylsulfonyl)phenyl)-[1,2,4]triazolo[1,5-a]pyridin-2-yl)amino)phenyl)piperazin-1-yl)-4-oxobutyl)amino)isoindoline-1,3-dione] | 3.41
O=C(CN1CCC(n2cc(-c3cnc4cccc(-c5cc(F)c(CN6CCOCC6)c(F)c5)c4n3)cn2)CC1)NCCOCCOCCOCCNc1cccc2c1C(=O)N(C1CCC(=O)NC1=O)C2=O (stereo not shown) [JA-141, 2-[4-[4-[8-[3,5-Difluoro-4-(morpholinomethyl)phenyl]quinoxalin-2-yl]pyrazol-1-yl]-1-piperidyl]-N-[2-[2-[2-[2-[[2-(2,6-dioxo-3-piperidyl)-1,3-dioxo-isoindolin-4-yl]amino]ethoxy]ethoxy]ethoxy]ethyl]acetamide] | > 10
O=C1CCC(N2Cc3cc(CCCCCCC(=O)N4CCC(n5cc(-c6cnc7cccc(-c8cc(F)c(CN9CCOCC9)c(F)c8)c7n6)cn5)CC4)ccc3C2=O)C(=O)N1 (stereo not shown) [JA-270, 3-(5-(7-(4-(4-(8-(3,5-Difluoro-4-(morpholinomethyl)phenyl)quinoxalin-2-yl)-1H-pyrazol-1-yl)piperidin-1-yl)-7-oxoheptyl)-1-oxoisoindolin-2-yl)piperidine-2,6-dione] | 0.562
Cn1c(=O)n(C2CCC(=O)NC2=O)c2cccc(NCCCCC(=O)N3CCC(n4cc(-c5cnc6cccc(-c7cc(F)c(CN8CCOCC8)c(F)c7)c6n5)cn4)CC3)c21 (stereo not shown) [JA-286, 3-(4-((5-(4-(4-(8-(3,5-Difluoro-4-(morpholinomethyl)phenyl)quinoxalin-2-yl)-1H-pyrazol-1-yl)piperidin-1-yl)-5-oxopentyl)amino)-3-methyl-2-oxo-2,3-dihydro-1H-benzo[d]imidazol-1-yl)piperidine-2,6-dione] | > 0.5
Cn1c(=O)n(C2CCC(=O)NC2=O)c2cccc(NCCCCCC(=O)N3CCC(n4cc(-c5cnc6cccc(-c7cc(F)c(CN8CCOCC8)c(F)c7)c6n5)cn4)CC3)c21 (stereo not shown) [JA-282, 3-(4-((6-(4-(4-(8-(3,5-Difluoro-4-(morpholinomethyl)phenyl)quinoxalin-2-yl)-1H-pyrazol-1-yl)piperidin-1-yl)-6-oxohexyl)amino)-3-methyl-2-oxo-2,3-dihydro-1H-benzo[d]imidazol-1-yl)piperidine-2,6-dione] | > 0.5
Cc1ncsc1-c1ccc(CNC(=O)[C@@H]2C[C@@H](O)CN2C(=O)[C@@H](NC(=O)CCOCCC(=O)N2CCN(c3ccc(Nc4nc5cccc(-c6ccc(S(C)(=O)=O)cc6)n5n4)cc3)CC2)C(C)(C)C)cc1 [JA-082, 4-Hydroxy-1-(2-{3-[3-(4-{4-[5-(4-methanesulfonyl-phenyl)-[1,2,4]triazolo[1,5-a]pyridin-2-ylamino]-phenyl}-piperazin-1-yl)-3-oxo-propoxy]-propionylamino}-3,3-dimethyl-butyryl)-pyrrolidine-2-carboxylic acid 4-(4-methyl-thiazol-5-yl)-benzylamide] | 6.43
CS(=O)(=O)c1ccc(-c2cccc3nc(Nc4ccc(N5CCN(CC(=O)NCCOCCOCCOCCOCCOCCNc6ccc7c(c6)C(=O)N(C6CCC(=O)NC6=O)C7=O)CC5)cc4)nn23)cc1 (stereo not shown) [JA-211, N-(17-((2-(2,6-Dioxopiperidin-3-yl)-1,3-dioxoisoindolin-5-yl)amino)-3,6,9,12,15-pentaoxaheptadecyl)-2-(4-(4-((5-(4-(methylsulfonyl)phenyl)-[1,2,4]triazolo[1,5-a]pyridin-2-yl)amino)phenyl)piperazin-1-yl)acetamide] | > 10
Cc1cnc(Nc2ccc(N3CCN(C(=O)COCCOCCOCC(=O)N[C@H](C(=O)N4C[C@H](O)C[C@H]4C(=O)NCc4ccc(-c5scnc5C)cc4)C(C)(C)C)CC3)cc2)nc1Nc1cccc(S(=O)(=O)NC(C)(C)C)c1 [JA-108, (2S,4R)-1-((S)-2-(tert-Butyl)-14-(4-(4-((4-((3-(N-(tert-butyl)sulfamoyl)phenyl)amino)-5-methylpyrimidin-2-yl)amino)phenyl)piperazin-1-yl)-4,14-dioxo-6,9,12-trioxa-3-azatetradecanoyl)-4-hydroxy-N-(4-(4-methylthiazol-5-yl)benzyl)pyrrolidine-2-carboxamide] | > 10
